# What was measured:
# [1] = tested on: crabgrass; assay: Test A pre-/postemergence greenhouse test; format: in vivo, Digitaria sanguinalis; conditions: for Plant response rating, Crabgrass, Large: 0 to 100 scale where 0 is no effect and 100 is complete control; for Crabgrass, Large plant response rating: 0 to 100 scale
# Method in brief: (§1)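 Sowing in loam/sand; same-day pre (directed soil spray) and post (foliar, 1–2 leaf, 2–10 cm) treatment with surfactant-containing non-phytotoxic solvent formulation; ~10 days in greenhouse; eye-scored injury against untreated plants.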
# [2] = tested on: giant foxtail; assay: Test A pre-/postemergence greenhouse test; format: in vivo, Setaria faberi; conditions: for Plant response rating, Foxtail, Giant: 0 to 100 scale where 0 is no effect and 100 is complete control; for Foxtail, Giant plant response rating: 0 to 100 scale
# Method in brief: as §1
# [3] = tested on: morningglory; assay: Test A pre-/postemergence greenhouse test; format: in vivo, Ipomoea spp.; conditions: for Plant response rating, Morningglory: 0 to 100 scale where 0 is no effect and 100 is complete control; for Morningglory plant response rating: 0 to 100 scale
# Method in brief: as §1
# [4] = tested on: wheat; assay: Test A pre-/postemergence greenhouse test; format: in vivo, Triticum aestivum; conditions: for Plant response rating, Wheat: 0 to 100 scale where 0 is no effect and 100 is complete control; for Wheat plant response rating: 0 to 100 scale
# Method in brief: as §1
# [5] = tested on: corn; assay: Test A pre-/postemergence greenhouse test; format: in vivo, Zea mays; conditions: for Plant response rating, Corn: 0 to 100 scale where 0 is no effect and 100 is complete control; for Corn plant response rating: 0 to 100 scale
# Method in brief: as §1
# [6] = tested on: Italian ryegrass; assay: Test C pre-/postemergence test; format: in vivo, Lolium multiflorum; conditions: for Plant response rating, Ryegrass, Italian: 31 g ai/ha, scale 0 to 100 (0 no effect, 100 complete control)
# Method in brief: (§2)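 Seeds were planted and treated preemergence with test chemical in a non-phytotoxic solvent mixture containing surfactant. Postemergence applications of the same formulation went onto plants 2 to 18 cm tall (1- to 4-leaf stage). A dash marks no test result.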
# [7] = tested on: wheat; assay: Test C pre-/postemergence test; format: in vivo, Triticum aestivum; conditions: for Plant response rating, Wheat: 31 g ai/ha, scale 0 to 100 (0 no effect, 100 complete control)
# Method in brief: as §2
# [8] = tested on: bermudagrass; assay: Test C pre-/postemergence test; format: in vivo, Cynodon dactylon; conditions: for Plant response rating, Bermudagrass: 31 g ai/ha
# Method in brief: as §2
# [9] = tested on: Goosegrass; assay: Test C pre-/postemergence test; format: in vivo, Eleusin indica; conditions: for Plant response rating, Goosegrass: 31 g ai/ha, scale 0 to 100 (0 no effect, 100 complete control)
# Method in brief: as §2
# [10] = tested on: morningglory; assay: Test C pre-/postemergence test; format: in vivo, Ipomoea coccinea; conditions: for Plant response rating, Morningglory: 31 g ai/ha, scale 0 to 100 (0 no effect, 100 complete control)
# Method in brief: as §2
# [11] = tested on: yellow nutsedge; assay: Test C pre-/postemergence test; format: in vivo, Cyperus esculentus; conditions: for Plant response rating, Nutsedge, Yellow: 31 g ai/ha, scale 0 to 100 (0 no effect, 100 complete control)
# Method in brief: as §2
# [12] = tested on: pigweed; assay: Test C pre-/postemergence test; format: in vivo, Amaranthus retroflexus
# Method in brief: as §2
# [13] = tested on: soybean; assay: Test C pre-/postemergence test; format: in vivo, Glycine max
# Method in brief: as §2
# [14] = tested on: common (oilseed) sunflower; assay: Test C pre-/postemergence test; format: in vivo, Helianthus annuus; conditions: for Plant response rating, Sunflower: 31 g ai/ha, scale 0 to 100 (0 no effect, 100 complete control)
# Method in brief: as §2
# [15] = tested on: umbrella sedge; assay: Test C flooded paddy test; format: in vivo, Cyperus difformis; conditions: Flood
# Method in brief: (§3)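 Under a constant 3 cm flood, test compounds went directly into the paddy water. Following 13 to 15 days of greenhouse growth, treated species and controls were compared by eye.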
# [16] = tested on: barnyardgrass; assay: Test C flooded paddy test; format: in vivo, Echinochloa crus-galli; conditions: Flood
# Method in brief: as §3
# [17] = Postemergence, 500 g ai/ha, 0 is no effect, 100 is complete control
# [18] = Preemergence, 125 g ai/ha, 0 no effect, 100 complete control
# [19] = 62 g ai/ha, Preemergence, scale 0 to 100
# [20] = 125 g ai/ha, preemergence, scale 0 (no effect) to 100 (complete control)
# [21] = preemergence, 250 g ai/ha, scale 0 (no effect) to 100 (complete control)
# [22] = 62 g ai/ha, Preemergence, scale 0 to 100 (0 no effect, 100 complete control)
# [23] = Preemergence, scale 0 to 100 (0 no effect, 100 complete control)
# [24] = 62 g ai/ha, scale 0 to 100 (0 no effect, 100 complete control)
# [25] = 250 g ai/ha, scale 0 to 100, 0 no effect, 100 complete control, 13 to 15 days
# [26] = Preemergence, 31 g ai/ha, scale 0 to 100 (0 no effect, 100 complete control)
structure (smiles),measurement,setting,value
CCn1nc(C(F)(F)F)c(C[S+]([O-])c2cc(C)cc[n+]2[O-])c1OCC(F)(F)F (racemic) [Compound 66],"Plant response rating, Crabgrass, Large","[1]; Postemergence, 125 g ai/ha",50
same,"Crabgrass, Large plant response rating",[1]; [17],90
same,"Crabgrass, Large plant response rating",[1]; [18],80
same,"Plant response rating, Crabgrass, Large","[1]; Preemergence, 500 g ai/ha",100
same,"Plant response rating, Foxtail, Giant","[2]; Postemergence, 125 g ai/ha",80
same,"Foxtail, Giant plant response rating",[2]; [17],90
same,"Foxtail, Giant plant response rating",[2]; [18],90
same,"Plant response rating, Foxtail, Giant","[2]; Preemergence, 500 g ai/ha",100
same,"Plant response rating, Morningglory","[3]; Postemergence, 125 g ai/ha",60
same,Morningglory plant response rating,[3]; [17],90
same,Morningglory plant response rating,[3]; [18],70
same,"Plant response rating, Morningglory","[3]; Preemergence, 500 g ai/ha",100
same,"Plant response rating, Wheat","[4]; Postemergence, 125 g ai/ha",60
same,Wheat plant response rating,[4]; [17],70
same,Wheat plant response rating,[4]; [18],70
same,"Plant response rating, Wheat","[4]; Preemergence, 500 g ai/ha",100
same,"Plant response rating, Corn","[5]; Postemergence, 125 g ai/ha",50
same,Corn plant response rating,[5]; [17],80
same,Corn plant response rating,[5]; [18],30
same,"Plant response rating, Corn","[5]; Preemergence, 500 g ai/ha",80
same,"Ryegrass, Italian plant response rating",[6]; [19],90
same,"Ryegrass, Italian plant response rating",[6]; [20],100
same,"Plant response rating, Ryegrass, Italian",[6]; Preemergence,55
same,Wheat plant response rating,[7]; [19],85
same,Wheat plant response rating,[7]; [20],98
same,"Plant response rating, Wheat",[7]; Preemergence,0
same,Wheat plant response rating,[7]; [21],100
same,Bermudagrass plant response rating,[8]; [22],100
same,Bermudagrass plant response rating,[8]; [20],100
same,"Plant response rating, Bermudagrass",[8]; [23],100
same,Bermudagrass plant response rating,[8]; [21],100
same,Goosegrass plant response rating,[9]; [19],100
same,Goosegrass plant response rating,[9]; [20],100
same,"Plant response rating, Goosegrass",[9]; Preemergence,100
same,Goosegrass plant response rating,[9]; [21],100
same,Morningglory plant response rating,[10]; [19],90
same,Morningglory plant response rating,[10]; [20],90
same,"Plant response rating, Morningglory",[10]; Preemergence,50
same,Morningglory plant response rating,[10]; [21],100
same,"Nutsedge, Yellow plant response rating",[11]; [19],30
same,"Nutsedge, Yellow plant response rating",[11]; [20],40
same,"Plant response rating, Nutsedge, Yellow",[11]; Preemergence,30
same,"Nutsedge, Yellow plant response rating",[11]; [21],50
same,Pigweed plant response rating,[12]; [19],30
same,Pigweed plant response rating,[12]; [20],100
same,Pigweed plant response rating,[12]; [21],100
same,Soybean plant response rating,[13]; [20],80
same,Sunflower plant response rating,[14]; [19],80
same,Sunflower plant response rating,[14]; [20],80
same,"Plant response rating, Sunflower",[14]; Preemergence,30
same,Sunflower plant response rating,[14]; [21],98
same,"Plant response rating, Sedge, Umbrella",[15]; [24],85
same,"Plant response rating, Sedge, Umbrella",[15]; [25],100
same,"Plant response rating, Barnyardgrass",[16]; [24],10
same,"Plant response rating, Barnyardgrass",[16]; [25],70
CCn1nc(C(F)(F)F)c(CS(=O)(=O)c2cccc[n+]2[O-])c1OCC(F)(F)F [Compound 63],"Plant response rating, Crabgrass, Large","[1]; Postemergence, 125 g ai/ha",60
same,"Crabgrass, Large plant response rating",[1]; [17],90
same,"Crabgrass, Large plant response rating",[1]; [18],80
same,"Plant response rating, Crabgrass, Large","[1]; Preemergence, 500 g ai/ha",100
same,"Plant response rating, Foxtail, Giant","[2]; Postemergence, 125 g ai/ha",80
same,"Foxtail, Giant plant response rating",[2]; [17],90
same,"Foxtail, Giant plant response rating",[2]; [18],100
same,"Plant response rating, Foxtail, Giant","[2]; Preemergence, 500 g ai/ha",100
same,"Plant response rating, Morningglory","[3]; Postemergence, 125 g ai/ha",30
same,Morningglory plant response rating,[3]; [17],60
same,Morningglory plant response rating,[3]; [18],20
same,"Plant response rating, Morningglory","[3]; Preemergence, 500 g ai/ha",70
same,"Plant response rating, Wheat","[4]; Postemergence, 125 g ai/ha",50
same,Wheat plant response rating,[4]; [17],60
same,Wheat plant response rating,[4]; [18],20
same,"Plant response rating, Wheat","[4]; Preemergence, 500 g ai/ha",80
same,"Plant response rating, Corn","[5]; Postemergence, 125 g ai/ha",30
same,Corn plant response rating,[5]; [17],60
same,Corn plant response rating,[5]; [18],0
same,"Plant response rating, Corn","[5]; Preemergence, 500 g ai/ha",50
same,"Ryegrass, Italian plant response rating",[6]; [19],50
same,"Ryegrass, Italian plant response rating",[6]; [20],60
same,"Plant response rating, Ryegrass, Italian",[6]; Preemergence,0
same,"Ryegrass, Italian plant response rating",[6]; [21],100
same,Wheat plant response rating,[7]; [19],20
same,Wheat plant response rating,[7]; [20],60
same,"Plant response rating, Wheat",[7]; Preemergence,0
same,Wheat plant response rating,[7]; [21],85
same,Bermudagrass plant response rating,[8]; [22],100
same,Bermudagrass plant response rating,[8]; [20],100
same,"Plant response rating, Bermudagrass",[8]; [23],100
same,Bermudagrass plant response rating,[8]; [21],100
same,Goosegrass plant response rating,[9]; [19],100
same,Goosegrass plant response rating,[9]; [20],100
same,"Plant response rating, Goosegrass",[9]; Preemergence,100
same,Goosegrass plant response rating,[9]; [21],100
same,Morningglory plant response rating,[10]; [19],0
same,Morningglory plant response rating,[10]; [20],0
same,"Plant response rating, Morningglory",[10]; Preemergence,0
same,Morningglory plant response rating,[10]; [21],0
same,"Nutsedge, Yellow plant response rating",[11]; [19],50
same,"Nutsedge, Yellow plant response rating",[11]; [20],55
same,"Plant response rating, Nutsedge, Yellow",[11]; Preemergence,0
same,"Nutsedge, Yellow plant response rating",[11]; [21],98
same,Pigweed plant response rating,[12]; [19],100
same,Pigweed plant response rating,[12]; [20],100
same,"Plant response rating, Pigweed",[12]; [26],50
same,Pigweed plant response rating,[12]; [21],100
same,Soybean plant response rating,[13]; [19],5
same,"Plant response rating, Soybean",[13]; [26],0
same,Soybean plant response rating,[13]; [21],50
same,Sunflower plant response rating,[14]; [19],60
same,Sunflower plant response rating,[14]; [20],80
same,"Plant response rating, Sunflower",[14]; Preemergence,10
same,Sunflower plant response rating,[14]; [21],85
same,"Plant response rating, Sedge, Umbrella",[15]; [24],0
same,"Plant response rating, Sedge, Umbrella",[15]; [25],85
same,"Plant response rating, Barnyardgrass",[16]; [24],40
same,"Plant response rating, Barnyardgrass",[16]; [25],40
